In ChEMBL document CHEMBL1201862, “PubChem BioAssay data set” (2004):
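How tested: cells in 96-well plates exposed to compound for 48 hours at five concentrations. GI50: concentration for 50% inhibition of growth.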 Calls of active or inactive are those of the source. No stated cut-off is given here; in the data, active = GI50 up to about 1.1 µM and inactive = higher.

Legend:
Assay in all cases: inhibition of tumour cell growth, NCI panel, 48 h
[1] = tested on: NCI-H522
[2] = tested on: PC-3
[3] = tested on: BT-549
[4] = tested on: 786-0
[5] = tested on: ACHN
[6] = tested on: NCI-H23
[7] = tested on: SNB-19
[8] = tested on: U-251
[9] = tested on: MDA-N
[10] = tested on: LOX IMVI
[11] = tested on: COLO 205
[12] = tested on: SK-MEL-5
[13] = tested on: SF-295
[14] = tested on: T47D
[15] = tested on: NCI-H460
[16] = tested on: HCT-116
[17] = tested on: NCI/ADR-RES
[18] = tested on: SN12C
[19] = tested on: OVCAR-3

Measured: GI50

O=C1CS(=O)(=O)C(c2cccc(Oc3ccccc3)c2)N1C1CC1 (centres undefined)
inactive: [1] 38.7 µM | [2] 25.8 µM | [3] 41.7 µM | [4] 37.2 µM | [5] 31.2 µM | [6] 28 µM | [7] 50.1 µM | [8] 32.5 µM | [9] 26.7 µM | [10] 41.7 µM | [11] 25.2 µM | [12] 18.9 µM | [13] 36.6 µM | [14] 35 µM | [15] 43.4 µM | [16] 25.5 µM | [17] 28.1 µM | [18] 46.8 µM | [19] 33 µM

Cn1c2ccccc2c(=S)c2ccccc21
inactive: [1] > 100 µM | [2] > 100 µM | [3] > 100 µM | [4] > 100 µM | [5] > 100 µM | [6] > 100 µM | [7] > 100 µM | [8] > 100 µM | [9] > 100 µM | [10] > 100 µM | [11] > 100 µM | [12] > 100 µM | [13] > 100 µM | [14] > 100 µM | [15] > 100 µM | [16] > 100 µM | [17] > 100 µM | [18] > 100 µM | [19] > 100 µM

COCOc1cc(OC)ccc1C/C=N/O
inactive: [1] > 100 µM | [2] > 100 µM | [3] > 100 µM | [4] > 100 µM | [5] > 100 µM | [6] > 100 µM | [7] > 100 µM | [8] > 100 µM | [9] > 100 µM | [10] > 100 µM | [11] > 100 µM | [12] > 100 µM | [13] > 100 µM | [14] > 100 µM | [15] > 100 µM | [16] > 100 µM | [17] > 100 µM | [18] > 100 µM | [19] > 100 µM

Clc1ccc(CCNC2(c3cc4ccccc4s3)CCCCC2)cc1Cl
inactive: [1] 17.5 µM | [2] 43.2 µM | [3] 28.2 µM | [4] 18.1 µM | [5] 26.2 µM | [6] 26.5 µM | [7] 30.5 µM | [8] 23.9 µM | [9] 32.3 µM | [10] 18.5 µM | [11] 17.8 µM | [12] 15.6 µM | [13] 28.7 µM | [14] 20.2 µM | [15] 14.8 µM | [16] 12.4 µM | [17] 24 µM | [18] 33.7 µM | [19] 20.6 µM

Cc1ccc2c(c1)nc1n2C(c2c(F)cccc2F)SC1 (centres undefined)
inactive: [1] 31.5 µM | [2] 20.7 µM | [3] > 10 µM | [4] 32 µM | [5] 35.2 µM | [6] 41.5 µM | [7] 64.1 µM | [8] 39.8 µM | [9] 49.8 µM | [10] 33.5 µM | [11] 32.3 µM | [12] > 10 µM | [13] 35.1 µM | [14] 41.6 µM | [15] 52.8 µM | [16] 28.4 µM | [17] 31.8 µM | [18] 39.4 µM | [19] 55.8 µM

O=c1cc(N2CCN(c3cc(=O)n4ccccc4n3)CC2)oc2ccccc12
inactive: [1] 29.8 µM | [2] > 100 µM | [3] 68.1 µM | [4] > 76 µM | [5] > 100 µM | [6] 99.1 µM | [7] > 55.5 µM | [8] > 58.1 µM | [9] > 100 µM | [10] > 100 µM | [11] 61 µM | [12] 65.9 µM | [13] > 76.7 µM | [14] > 73.5 µM | [15] 26.6 µM | [16] > 100 µM | [17] > 66.8 µM | [18] > 92.7 µM | [19] > 100 µM

O=C1CC(C(=O)O)Cc2c(Br)ccc(O)c21 (centres undefined)
inactive: [1] > 100 µM | [2] > 100 µM | [3] > 100 µM | [4] > 100 µM | [5] > 100 µM | [6] > 100 µM | [7] > 100 µM | [8] > 100 µM | [9] > 100 µM | [10] > 100 µM | [11] > 100 µM | [12] > 100 µM | [13] > 100 µM | [14] > 100 µM | [15] > 100 µM | [16] > 100 µM | [17] > 100 µM | [18] > 100 µM | [19] > 100 µM

CCOP(=O)(OCC)C(=C1C=C(C(C)(C)C)C(=O)C(C(C)(C)C)=C1)P(=O)(OCC)OCC
inactive: [1] 2.27 µM | [2] > 10 µM | [3] 2.86 µM | [4] > 4.09 µM | [5] 1.94 µM | [6] > 10 µM | [7] > 10 µM | [8] > 10 µM | [9] > 5.68 µM | [10] > 10 µM | [11] 1.98 µM | [12] > 10 µM | [13] > 10 µM | [14] 2.13 µM | [15] > 10 µM | [16] 2.54 µM | [17] > 10 µM | [18] > 10 µM | [19] 2.41 µM

Cc1ccc(/C=C2\CN(C)CC3C2=NN(c2ccccc2)C3c2ccc(C)cc2)cc1 (centres undefined)
inactive: [1] > 100 µM | [2] 38.9 µM | [3] > 100 µM | [4] > 100 µM | [5] > 100 µM | [6] > 100 µM | [7] 74.6 µM | [8] 33.3 µM | [9] > 100 µM | [10] > 100 µM | [11] > 100 µM | [12] > 100 µM | [13] > 100 µM | [14] > 100 µM | [15] > 100 µM | [16] > 100 µM | [17] > 100 µM | [18] > 100 µM | [19] > 100 µM

CC/C(Cl)=N\OC(=O)Nc1ccc(F)c(Cl)c1
inactive: [1] 1.87 µM | [2] 16 µM | [3] 16.6 µM | [4] 7.1 µM | [5] 13.8 µM | [6] 21.2 µM | [7] 14.4 µM | [8] 17.2 µM | [9] 18.2 µM | [10] 4.91 µM | [11] 2.82 µM | [12] 15.6 µM | [13] 18.2 µM | [14] 7.89 µM | [15] 17.7 µM | [16] 14 µM | [17] 19.5 µM | [18] 18 µM | [19] 2.59 µM

Cc1nnc(CC#N)n1NC(=O)CC#N
inactive: [1] > 100 µM | [2] > 100 µM | [3] > 100 µM | [4] > 100 µM | [5] > 100 µM | [6] > 100 µM | [7] > 100 µM | [8] > 100 µM | [9] > 100 µM | [10] > 100 µM | [11] > 100 µM | [12] > 100 µM | [13] > 100 µM | [14] > 100 µM | [15] > 100 µM | [16] > 100 µM | [17] > 100 µM | [18] > 100 µM | [19] > 100 µM
